Assay results taken from ChEMBL document CHEMBL3639094, “Organic compounds” (2014).

Molecular target: T1, Cholesteryl ester transfer protein (Homo sapiens, UniProt P11597)
T1 sequence (P11597 whole entry): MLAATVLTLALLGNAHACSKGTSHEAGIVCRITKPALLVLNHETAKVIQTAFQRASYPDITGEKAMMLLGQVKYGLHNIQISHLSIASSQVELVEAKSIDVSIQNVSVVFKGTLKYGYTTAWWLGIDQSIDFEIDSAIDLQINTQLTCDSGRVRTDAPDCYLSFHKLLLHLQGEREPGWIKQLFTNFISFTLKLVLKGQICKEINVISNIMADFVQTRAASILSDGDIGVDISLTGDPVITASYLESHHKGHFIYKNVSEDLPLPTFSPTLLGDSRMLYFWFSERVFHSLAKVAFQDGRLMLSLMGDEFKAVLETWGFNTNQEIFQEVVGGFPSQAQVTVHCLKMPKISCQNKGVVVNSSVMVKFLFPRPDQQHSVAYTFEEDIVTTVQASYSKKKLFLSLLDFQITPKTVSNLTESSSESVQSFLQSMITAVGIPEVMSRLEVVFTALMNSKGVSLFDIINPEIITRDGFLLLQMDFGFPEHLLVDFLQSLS
Experiment: In Vitro Assay: CETP Activity Kit (#RB-RPAK) was purchased from Roar Biochemical, Inc. (New York, N.Y., USA). To each well of a 96-well NBS half-area plate (costar #3686), 1.2 ng/well of the donor solution, 1 uL of the acceptor solution and 5 uL compound solution diluted in 100% DMSO were added in a 38 uL of buffer containing 10 mM Tris, 150 mM NaCl and 2 mM EDTA, pH 7.4. Then, the plate was sealed with Themowell Sealers (costar #6524) and followed by a mixing on a plate shaker by MICROPLATE MIXER MPX-96 (IWAKI) at power 3 for 10 sec at room temperature. After 10-min incubation at 37C., the reaction was started by adding 5 uL of rhCETP solution (Cardiovascular Target, New York, N.Y., USA) and mixed on the plate shaker for 10 sec, then the fluorescence intensity at 0 min was measured by a ARVO SX (Perkin Elmerr, USA) at excitation wavelength of 465 nm and emission wavelength of 535 nm. After 120 min-incubation at 37C., fluorescence intensity was measured again.

SMILES | IC50 [µM]
CC[C@@H]1C[C@H](N(Cc2cc(C(F)(F)F)cc(C(F)(F)F)c2)c2ncc(-c3cnn(C)c3)cn2)CN1c1nc(N2CCC(C(=O)O)CC2)ncc1Cl | 0.077
CC[C@@H]1C[C@H](N(Cc2cc(C(F)(F)F)cc(C(F)(F)F)c2)c2ncc(N3CCOCC3)cn2)CN1c1nc(N2CCC(C(=O)O)CC2)ncc1Cl | 0.13
CC[C@@H]1C[C@H](N(Cc2cc(C(F)(F)F)cc(C(F)(F)F)c2)c2ncc(-c3cnn(C)c3)cn2)CN1C(=O)OC(C)C | 0.023
CC[C@@H]1C[C@H](N(Cc2cc(C(F)(F)F)cc(C(F)(F)F)c2)c2ncc(-c3cnn(C)c3)cn2)CN1C(=O)OCC1(C)COC1 | 0.053
